Assay results reported in US20260176285A1, “SALT OF DIOXANE QUINOLINE COMPOUND, CRYSTAL FORM THEREOF, PREPARATION METHODS THEREFOR AND USES THEREOF” (Beijing Scitech-MQ Pharmaceuticals Limited, priority 2022, published 2026).
Converted amounts (≈) assume the structure as drawn.

How the values were obtained:
[1] = Dynamic solubility in water, SGF, FaSSIF and FeSSIF; format: physicochemical; conditions: for solubility at 1 h / solubility at 2 h / solubility at 4 h / solubility at 24 h: 37 °C, thermodynamic from solid
Method: Biological solvent Preparation • 1. […] 67.5 μL of concentrated hydrochloric acid (12 M) was added and the mixture was adjusted to a pH value of 1.8 with 1 M hydrochloric acid or 1 M NaOH solution. Purified water was added to make up to volume. • 2. Preparation of Fasted State Simulated Intestinal Fluid (FaSSIF): 0.17 g of anhydrous NaH2PO4, 0.021 g of NaOH, and 0.31 g of NaCl were weighed into a 50-mL volumetric flask. About 48 mL of purified water was added to dissolve the mixture completely, and the solution was adjusted to a pH value of 6.5 with 1 M hydrochloric acid or 1 M NaOH solution. Purified water was added to make up to volume. 0.11 g of SIF powder was added and dissolved completely. • 3. Preparation of Fed State Simulated Intestinal Fluid (FeSSIF): 0.41 mL of glacial acetic acid, 0.20 g of NaOH and 0.59 g of NaCl were weighed into a 50-mL volumetric flask. About 48 mL of purified water was added to dissolve the mixture completely, and the solution was adjusted to a pH value of 5.0 with 1 M hydrochloric acid or 1 M NaOH solution. Purified water was added to make up to volume. 0.56 g of SIF powder was added and dissolved completely.
The dynamic solubility of the free state, the mucate salt crystal form A-I, the p-toluenesulfonate salt crystal form A-II, the di-p-toluenesulfonate salt crystal form A-IV and the phosphate salt crystal form A-V of the compound of formula (I) in water and three biological solvents was evaluated.
The samples at each time point were centrifuged and filtered (0.45 μm PTFE filter head), and the HPLC concentration and pH value of the filtrate were determined.

[2] = Hygroscopicity by dynamic moisture sorption (DVS); format: physicochemical
Method: Dynamic moisture sorption (DVS): The curves were collected on a DVS Intrinsic of SMS (Surface Measurement Systems). At 25° C., the humidity range was 0% RH-95% RH, the step was 10% (the last step was 5%), and the dm/dt was 0.002%/min.
The hygroscopicity of the free compound of formula (I), mucate salt crystal form A-I, p-toluenesulfonate salt crystal forms A-II and B-III, di-p-toluenesulfonate salt crystal form A-IV and phosphate salt crystal form A-V was evaluated by dynamic moisture sorption instrument (DVS). Starting from 0% relative humidity (0% RH), the test collected the mass change percentage of the samples under constant temperature of 25° C. with humidity changes (0% RH-95% RH-0% RH).

[3] = Solid-state stability evaluation (XRPD, HPLC); format: physicochemical
Method: The following 6 test samples were placed under 25° C./60% RH and 40° C./75% RH conditions for 1 week, and then the physical and chemical stability of the samples was tested by XRPD and HPLC.
At the same time, after the p-toluenesulfonate salt crystal form A-II and crystal form B-III solids were placed at 80° C. for 24 hours, the physical and chemical stability of the samples were tested by XRPD and HPLC.

[4] = test system: human lung cancer cells EBC-1; assay: Efficacy in nude mouse tumor-bearing model of human lung cancer cells EBC-1; format: in vivo, Balb/c nude mouse
From the text: In this assay, the free compound of formula (I) of the present application and different salts of the compound prepared in Examples 1, 2 and 5 were orally administered to a nude mouse tumor-bearing model of human lung cancer cells EBC-1 to study their effects on tumor growth.
Preparation of test compounds: an appropriate weight of the test compound (including the free form of the compound of formula (I) and different salts of the compound prepared in Examples 1, 2 and 5) was weighed, completely suspended/dissolved in an appropriate volume of 0.1% sodium carboxymethyl cellulose, stirred and vortexed to give a uniform solution or suspension.
Methods: All assays were authorized by the Animal Welfare Committee. EBC-1 in the logarithmic growth phase was inoculated into immune-deficient nude mice (BALB/c nude, female, 6-8 weeks old, weighing 18±2 g), subcutaneously on the right back, with a cell inoculation amount of 5×10^6/mouse. After the tumor grew to 150-200 mm^3, the animals were randomly divided into groups, 6 mice per group. The dose of each test substance was set at 15 mg/kg and 7.5 mg/kg (both based on the concentration of the effective formula (I) compound), and administered once a day for about 3 weeks. The test compounds were freshly prepared each day before use. During the assay, the tumor diameter was measured twice a week, and the mice were weighed at the same time. The calculation formula of tumor volume (TV) is: TV=1/2×a×b^2, where a and b represent length and width, respectively. The relative tumor volume (RTV) was calculated based on the measurement results, and the calculation formula is: RTV=Vt/V0, wherein V0 is the tumor volume measured at the time of cage grouping and dosing initiation (i.e., d0), and Vt is the tumor volume at each measurement. The evaluation index of antitumor activity is the relative tumor proliferation rate T/C (%), calculated as follows: T/C (%)=(TRTV/CRTV)×100%, TRTV: RTV of the treatment group; CRTV: RTV of the negative control group. T and C represent the average tumor volume at a certain time point in the drug administration group and the control group, respectively.

[5] = pH 1.8, simulated gastric fluid

O=C(Nc1ccc(F)cc1)C1(C(=O)Nc2ccc(Oc3ccnc4cc(OCCCN5CCOCC5)c5c(c34)OCCO5)c(F)c2)CC1 [Free state, N-(3-fluoro-4-((5-(3-morpholinopropoxy)-2,3-dihydro-[1,4]dioxano[2,3-f]quinolin-10-yl)oxy)phenyl)-N-(4-fluorophenyl)cyclopropane-1,1-dicarboxamide]
S (dynamic solubility) [1]: <LOQ | solubility at 1 h [1, 5]: 5700 µg/mL (≈ 8630 µM) | solubility at 2 h [1, 5]: 5800 µg/mL (≈ 8780 µM) | solubility at 4 h [1, 5]: 5700 µg/mL (≈ 8630 µM) | solubility at 24 h [1, 5]: 5700 µg/mL (≈ 8630 µM) | solubility at 1 h ([1]; pH 5, fessif): 640 µg/mL (≈ 969 µM) | solubility at 2 h ([1]; pH 5, fessif): 710 µg/mL (≈ 1070 µM) | solubility at 4 h ([1]; pH 5, fessif): 710 µg/mL (≈ 1070 µM) | solubility at 24 h ([1]; pH 5, fessif): 760 µg/mL (≈ 1150 µM) | solubility at 1 h ([1]; pH 6.5, fassif): 1.8 µg/mL (≈ 2.72 µM) | solubility at 2 h ([1]; pH 6.5, fassif): 1.9 µg/mL (≈ 2.88 µM) | solubility at 4 h ([1]; pH 6.5, fassif): 2.1 µg/mL (≈ 3.18 µM) | solubility at 24 h ([1]; pH 6.5, fassif): 2.5 µg/mL (≈ 3.78 µM) | pH of the filtrate ([1]; FaSSIF, 1 hour): 6.4 | pH of the filtrate ([1]; FaSSIF, 2 hours): 6.4 | pH of the filtrate ([1]; FaSSIF, 4 hours): 6.4 | pH of the filtrate ([1]; FaSSIF, 24 hours): 6.4 | pH of the filtrate ([1]; FeSSIF, 1 hour): 4.9 | pH of the filtrate ([1]; FeSSIF, 2 hours): 5.0 | pH of the filtrate ([1]; FeSSIF, 4 hours): 5.0 | pH of the filtrate ([1]; FeSSIF, 24 hours): 5.0 | pH of the filtrate ([1]; H2O, 1 hour): 6.7 | pH of the filtrate ([1]; H2O, 2 hours): 5.5 | pH of the filtrate ([1]; H2O, 4 hours): 6.7 | pH of the filtrate ([1]; H2O, 24 hours): 7.8 | pH of the filtrate ([1]; SGF, 1 hour): 3.6 | pH of the filtrate ([1]; SGF, 2 hours): 3.7 | pH of the filtrate ([1]; SGF, 4 hours): 3.7 | pH of the filtrate ([1]; SGF, 24 hours): 3.8 | Whether the crystal form changes after DVS test ([2]; 0% RH-95% RH-0% RH, 25° C.): no | Hygroscopicity ([2]; DVS, 25° C.): Almost no | Moisture adsorption (25° C./80% RH) ([2]; DVS, 25° C./80% RH): 0.11% | Change of Crystal form ([3]; 25° C./60% RH, 1 week): no | Purity ([3]; 25° C./60% RH, 1 week): 99.36 area % | Purity/initial purity ([3]; 25° C./60% RH, 1 week): 99.9% | Change of Crystal form ([3]; 40° C./75% RH, 1 week): no | Purity ([3]; 40° C./75% RH, 1 week): 99.39 area % | Purity/initial purity ([3]; 40° C./75% RH, 1 week): 99.9% | Change of Crystal form ([3]; Starting): no | Purity ([3]; Starting): 99.44 area % | T/C (relative tumor proliferation rate) ([4]; 7.5 mg/kg oral once a day, day 3): 80.2% | T/C (relative tumor proliferation rate) ([4]; 7.5 mg/kg oral once a day, day 7): 68.3% | T/C (relative tumor proliferation rate) ([4]; 7.5 mg/kg oral once a day, day 10): 77.9% | T/C (relative tumor proliferation rate) ([4]; 7.5 mg/kg oral once a day, day 14): 69.3% | T/C (relative tumor proliferation rate) ([4]; 7.5 mg/kg oral once a day, day 18): 81.3% | T/C (relative tumor proliferation rate) ([4]; 7.5 mg/kg oral once a day, day 21): 70.68% | T/C (relative tumor proliferation rate) ([4]; 15 mg/kg oral once a day, day 3): 88.8% | T/C (relative tumor proliferation rate) ([4]; 15 mg/kg oral once a day, day 7): 76.9% | T/C (relative tumor proliferation rate) ([4]; 15 mg/kg oral once a day, day 10): 80.4% | T/C (relative tumor proliferation rate) ([4]; 15 mg/kg oral once a day, day 14): 66.4% | T/C (relative tumor proliferation rate) ([4]; 15 mg/kg oral once a day, day 18): 72.2% | T/C (relative tumor proliferation rate) ([4]; 15 mg/kg oral once a day, day 21): 64.60%
